Source: patent publication US7375088B2, “Polyene polyketides, processes for their production and their use as a pharmaceutical” (Thallion Pharmaceuticals Inc., priority 2003, dated 2008)
Values after ≈ are worked out from the molar mass of the structure shown.

Assays:
Aspergillus fumigatus = test: Disk diffusion assay (MEC and zone of inhibition); format: cell-based
Aspergillus flavus = test: Disk diffusion assay (MEC and zone of inhibition); format: cell-based
C. albicans SC5314 = test: Mouse model of disseminated candidiasis (survival); format: in vivo; conditions: for Median survival: CD-1 mice infected i.v. with C. albicans SC5314, observed 21 days
Protocol: Compound 2(a) was provided as a dry powder with an estimated purity of 95+%. Fungizone (amphotericin B desoxycholate, to be used as a comparitor), was also provided as a dry powder with an estimated purity of 95+%. The compound 2(a) and Fungizone were stored as dry powders at −80° C. until the day of administration.
Female mice (species Mus musculus, strain CD-1, Charles River) with body weight range of 22-24 g were used in the study. […] All animal experiments were performed at the Ste-Justine Hospital (Montreal, Quebec) according to ethical guidelines of animal experimentation of the ethical committee of the hospital. During the study, dead or apparently sick animals were promptly removed and sick mice were euthanized upon removal from the cage.
The animals were maintained in rooms under controlled conditions of temperature (23±2° C.), humidity (45±5%), photoperiodicity (12 hrs light/12 hrs dark) and air exchange. The animals were housed in polycarbonate cages (4/single cage) equipped to provide food and water. Sterile wood shavings were used for animal bedding and the bedding was replaced every other day. Food (Harlam Tecklab, Canada) and autoclaved tap water was provided ab libitum, the food being placed in the metal lid on top of the cage. Water bottles were equipped with rubber stoppers and sipper tubes and were cleaned, sterilized and replaced once a week.
Six groups of mice (10 mice per group) were infected intravenously with 3×10^6 CFU of C. albicans SC5314 as previously described (see Dubois, N., et al., Microbiology 1998, 144: 2299-2310). Twenty-four hours after infection, each individual group of mice was treated with Compound 2(a) (1 or 3 mg/kg i.p.), Fungizone (0.25, 0.5 or 1 mg/kg i.p.) as comparitor, or sham-treated with sterile water containing 5% dextrose and 3% DMSO. Each animal received 100 μl of test solution.
The treatment regimen was repeated once daily for a total of 4 days. The mice were observed twice daily for signs of morbidity over 21 days. Moribund animals were scored as non-survivors and euthanized by CO2 inhalation. […]

[1] = test system: Candida albicans ATCC 10231; test: MIC broth microdilution assay
Protocol: (§1) Test compound preparation: The test article was prepared as 100× stock solutions in DMSO, with concentrations ranging from 3.2 mg/ml to 0.0625 mg/ml (a two-fold dilution series over 10 points). The first dilution (3.2 mg/ml) was prepared by resuspending 0.5 mg of each test article in 156.25 μl of DMSO. The stock is then serially diluted by two-fold increments to obtain the desired concentration range.
(§2) Inoculum preparation: For fungal strains, the inoculum was prepared as follows. From an overnight culture in Yeast Media broth, cell density was adjusted in 0.85% saline to 0.5 McFarland. This procedure yielded a stock suspension of about 5×10^6 cells/ml. Following thorough vortexing, a working suspension was prepared by diluting the stock 1:50 in RPMI 1640, and then further diluting it 1:20 with RPMI 1640 to obtain the 2× test inoculum (about 5×10^3 cells/ml). For filamentous fungi, the inoculum was prepared as follows. […]
(§3) 50 μl of the final cell dilution (yeast, filamentous fungi or bacteria) of each indicator strain was added to each corresponding well of the microplate containing 50 μl of diluted drug or media alone. […] MIC readings were determined at 24 and 48 hrs for the Candida and Aspergillus species, and at 48 and 72 hrs for Cryptococcus neoformans. MIC readout for each indicator was determined as the lowest concentration of test compound resulting in total absence of growth.

Candida krusei LSPQ 0309 = test: MIC broth microdilution assay; conditions: Pichia kudriavzevii
Protocol: as §1, §2, §3

[2] = test system: Candida glabrata LSPQ 0250; test: MIC broth microdilution assay; conditions: Nakaseomyces glabratus
Protocol: as §1, §2, §3

[3] = test system: Candida lusitaniae ATCC 200953; test: MIC broth microdilution assay; conditions: Clavispora lusitaniae
Protocol: as §1, §2, §3

[4] = test system: Saccharomyces cerevisiae ATCC 9763; test: MIC broth microdilution assay
Protocol: as §1, §2, §3

[5] = test system: Cryptococcus neoformans ATCC 32045; test: MIC broth microdilution assay
Protocol: as §1, §2, §3

[6] = test system: Aspergillus flavus ATCC 204304; test: MIC broth microdilution assay
Protocol: as §1, §2, §3

[7] = test system: Aspergillus fumigatus ATCC 204305; test: MIC broth microdilution assay
Protocol: as §1, §2, §3

[8] = at the MEC, 24 hours of incubation
[9] = disk diffusion, 24 hours of incubation

SMILES: CC(C=CCCC=CC=CC=CC=CC(=O)NC1=C(O)CCC1=O)C(O)C(C)C(O)C=CC=CC=CC=CC=CCC(OC1OC(C)C(O)C(O)C1O)C(C)C(=O)CC(O)CC(O)CC(O)C=CCC(O)CC(O)CC(O)CC(O)C=CCC(O)CC(O)CCCN (stereo not shown) [Compound 2(a), 56-Amino-15,17,33,35,37,41,43,45,47,51,53-undecahydroxy-14,16,30-trimethyl-31-oxo-29-(3,4,5-trihydroxy-6-methyl-tetrahydro-pyran-2-yloxy)-hexapentaconta-2,4,6,8,12,18,20,22,24,26,38,48-dodecaenoic acid (2-hydroxy-5-oxo-cyclopent-1-enyl)-amide]
- antifungal activity in disk diffusion assay (Aspergillus fumigatus): active
- ZOI (zone of inhibition of fungal growth calculated for each MEC) (Aspergillus fumigatus; [8]): 2.7 mm
- MEC (minimum effective concentration) (Aspergillus fumigatus; [9]): 2.5 µg/mL
- antifungal activity in disk diffusion assay (Aspergillus flavus): active
- ZOI (zone of inhibition of fungal growth calculated for each MEC) (Aspergillus flavus; [8]): 2.7 mm
- MEC (minimum effective concentration) (Aspergillus flavus; [9]): 2.5 µg/mL
- Median survival (C. albicans SC5314; 1.0 mg/kg i.p. once daily for 4 days): 8.5 days
- Median survival (C. albicans SC5314; 3.0 mg/kg i.p. once daily for 4 days): 20 days
- increase of the median survival time of infected mice (C. albicans SC5314; versus vehicle (median survival 5 days)): 4 fold
- MIC ([1]; ATCC10231, 24 h): 4 µg/mL (≈ 3.08 µM)
- MIC ([1]; ATCC10231, 48 h): 4 µg/mL (≈ 3.08 µM)
- MIC (Candida krusei LSPQ 0309; LSPQ0309, 24 h): 8 µg/mL (≈ 6.17 µM)
- MIC (Candida krusei LSPQ 0309; LSPQ0309, 48 h): 8 µg/mL (≈ 6.17 µM)
- MIC ([2]; LSPQ0250, 24 h): 4 µg/mL (≈ 3.08 µM)
- MIC ([2]; LSPQ0250, 48 h): 8 µg/mL (≈ 6.17 µM)
- MIC ([3]; ATCC200953, 24 h): 4 µg/mL (≈ 3.08 µM)
- MIC ([3]; ATCC200953, 48 h): 4 µg/mL (≈ 3.08 µM)
- MIC ([4]; ATCC9763, 24 h): 4 µg/mL (≈ 3.08 µM)
- MIC ([4]; ATCC9763, 48 h): 4 µg/mL (≈ 3.08 µM)
- MIC ([5]; ATCC32045, 48 h): 2 µg/mL (≈ 1.54 µM)
- MIC ([5]; ATCC32045, 72 h): 4 µg/mL (≈ 3.08 µM)
- MIC ([6]; ATCC204304, 24 h): 4 µg/mL (≈ 3.08 µM)
- MIC ([6]; ATCC204304, 48 h): 8 µg/mL (≈ 6.17 µM)
- MIC ([7]; ATCC204305, 24 h): 16 µg/mL (≈ 12.3 µM)
- MIC ([7]; ATCC204305, 48 h): 16 µg/mL (≈ 12.3 µM)
